# Experimental data taken from US20030095933A1, “Anti-aging skin care composition and uses thereof” (priority 2001, published 2003).
# Columns and labels:
# [1] = system: facial skin of a human subject; experiment: Topical application of aqueous solution to facial skin of a human subject before bedtime
# Procedure: Topical Application of an Aqueous Solution of Vitamin C. A one gram tablet of Vitamin C (Ascorbic acid; GNC Brand, GNC, Inc.) was dissolved to completion in 1 tablespoon of water. The resulting solution was applied to the facial skin of a human subject immediately before bedtime.
# Direct Comparisons of Aqueous Vitamin C Solution to Aqueous Vitamin C Solutions Containing Additional Ingredients. Several direct comparisons were performed to determine whether the addition of additional components could improve the results observed with Vitamin C alone. In the first of these tests, an aqueous solution comprising Vitamin C alone (3 g) was applied to one side of the subject's face immediately before bedtime, while an aqueous solution comprising 3 g of Vitamin C and 600 mg of N-acetyl-cysteine (GNC, Inc.) was applied to the other half of the subject's face at the same time.
# A second comparison was then performed. In this study, an aqueous solution comprising Vitamin C (3 g) and Vitamin B5 (500 mg, obtained from GNC, Inc.) was applied to one side of the subject's face immediately before bedtime, while an aqueous solution comprising 3 g of Vitamin C, 600 mg of N-acetyl-cysteine and 10 mg zinc (GNC, Inc.) was applied to the other half of the subject's face at the same time.
# Tablets containing 3 g of Vitamin C, 100 mg of Vitamin B1, 500 mg of Vitamin B5 and 500 mg of N-acetyl-cysteine, all obtained from obtained from GNC, Inc., were ground into a powder and mixed together. The mixture was then added to one tablespoon of water and allowed to dissolve to completion, which took approximately 10 hrs. The resulting solution was applied to the facial skin of a human subject immediately before bedtime.
# Optimization of ranges for each of the components was determined. For example, the amount of Vitamin C present in the composition described above in Example 2 was varied from 0 g to 5 g.
# In an attempt to reduce the slight irritation caused by application of the anti-aging skin care composition and to enhance its effects on fine lines and wrinkles, 100 mg of lipoic acid was added to the anti-aging skin care composition comprising 3 g of Vitamin C, 100 mg of Vitamin B1, 500 mg of Vitamin B5 and 500 mg of N-acetyl-cysteine. […] The resulting solution was again applied to the facial skin of a human subject immediately before bedtime.
# [2] = Miscibility of Vitamin E with the aqueous Vitamin C solution; format: physicochemical; conditions: oils and powders containing Vitamin E
# Procedure: Addition of Vitamin E Prevented by Poor Solubility. […] Thus, no further studies of the effects of the addition of Vitamin E to the various anti-aging skin care compositions described herein were performed.
Compound,redness or burning of the facial skin upon waking ([1]; after approximately 6-8 hrs of sleep),"appearance of the facial skin upon waking ([1]; after approximately 6-8 hrs of sleep, overnight application)","sensation upon initial contact with the facial skin ([1]; immediately after application, before the solution dried)","redness and irritation following subsequent applications ([1]; subsequent applications, dose of Vitamin C increased to 2 g and up to 5 g)",miscibility with the aqueous solution containing Vitamin C [2]
"O=C1O[C@H]([C@@H](O)CO)C(O)=C1O [Vitamin C, Ascorbic acid]",slight redness of the facial skin,noticeably improved,slight burning sensation,subsided greatly,
Vitamin E,,,,,neither oils nor powders containing Vitamin E were miscible
